Consider one compound from PMC11176561 (Computational and Structural Biotechnology Journal, 2024).

The subject of the test is ceftazidime-resistant E. coli E24. Put plainly: E. coli-induced mouse bacteremia.
Where [1] appears, read: ceftazidime 5 mg/kg i.p., 8 h of drug treatment.

On to `CC(C)(O/N=C(\C(=O)N[C@@H]1C(=O)N2C(C(=O)[O-])=C(C[n+]3ccccc3)CS[C@H]12)c1csc(N)n1)C(=O)O` [Ceftazidime], for which the “loss of mice (mortality)” value (ceftazidime 5 mg/kg i.p. 2 h after i.p. E. coli E24) was 85.7%. Besides, under setting [1], the “bacterial load in the blood” value is “approximately 1 × 10^9 CFU/ml”; the “bacterial load in the lung, liver, spleen, and kidney tissues” value is “approximately 1 × 10^9 CFU/g”.
